From patent publication US20190170731A1, “METHOD TO MEASURE RELATIVE UTILIZATION OF AEROBIC GLYCOLYSIS BY POSITIONAL ISOTOPIC DISCRIMINATION” (priority 2016, published 2019)

Tests used:
Type in all cases: cell-based
MDA-MB-231 cells = assay: [1-13C]glucose labeling and LC-MS measurement of relative glycolysis rate; conditions: 10 μM KU-55933, MDA-MB-231 cells, 10 mM D-[1-13C]-glucose; samples at 1, 3 and 6 hours of labeling (as well as 9 hours, p<0.05)
Method: FIGS. 7A-B. A) Sub-confluent MDA-MB-231 cells were serum-starved overnight. Cells were washed with PBS and were then pre-treated with 10 μM KU-55933 (Halaby et al., 2008) for 30 minutes in the glucose- and serum-free medium. Fluorescently-tagged 2-NBDG (30 μg/ml) was then added for 30 minutes. Cells were treated with 100 nM insulin for another 45 minutes. Glucose Uptake was then measured following the manufacturer's instructions (Cayman Chemical). B) MDA-MB-231 cells were cultured in DMEM containing 10% FBS. After reaching […] confluent, cells were serum-starved overnight. Cells were then washed with PBS and incubated in serum- and glucose/pyruvate-free DMEM for 90 minutes. The labeling was initiated after replacing the medium with fresh serum- and glucose/pyruvate-free DMEM supplemented with 10 mM D-[1-^13C]-glucose ±10 μM KU-55933. […] 40 μL of medium was taken and diluted with 160 μL of methanol to precipitate the proteins. For LC-MS analysis, 2 μL of the supernatant were injected and analyzed with the Q-Exactive mass spec. The bar graph represents the average relative glycolysis rate ±SEM from 3 individual experiments (*p<0.05). […] These breast cancer cells were grown in DMEM supplemented with antibiotics and 10% fetal bovine serum. […] The relative rate of glycolysis for each cancer cell line was measured by the incorporation of [1-^13C]glucose into [3-^13C]lactate. […]

MDA-MB-231 = assay: 2-NBDG glucose uptake assay; conditions: MDA-MB-231, 100 nM insulin for 45 minutes, 30 μg/mL 2-NBDG
Method: (§1) FIG. 2. […] Sub-confluent cells were serum-starved overnight. Cells were then washed with PBS and cell culture medium was replaced with glucose- and serum-free medium. Fluorescently-tagged 2-NBDG (Cayman Chemical) was then added at a concentration of 30 μg/mL for 30 minutes. After addition of 2-NBDG, cells were treated with 100 nM insulin for another 45 minutes. Glucose uptake was then measured as described hereinbelow. The graph represents the averages of 2-NBDG glucose uptake ±SEM from 3 individual experiments (p<0.05).
(§2) Glucose uptake was analyzed using a 2-NBDG (2-deoxy-2-[(7-nitro-2,1,3-benzoxadiazol-4-yl)amino]-D-glucose, a fluorescently labeled 2-deoxyglucose) glucose uptake kit from Cayman Chemical. Briefly, cells were plated at 200,000 cells/well in a 24-well plate and allowed to grow to sub-confluency. Cells were then serum starved overnight. The next morning, cells were incubated in serum- and glucose-free medium for 30 minutes. Cells were then incubated with 30 μg/mL 2-NBDG for another 30 minutes. After incubation, cells were treated with 100 nM insulin for 45 minutes. Cells were then transferred to a clear-bottom black 96 cell plate. The plate was subjected to centrifugation at 400×g for 5 minutes. […] Signal intensity was measured with a Synergy 2 (BioTek) microplate reader at excitation/emission=485/535 nm.

MDA-MB-453 = assay: 2-NBDG glucose uptake assay; conditions: MDA-MB-453, 100 nM insulin for 45 minutes, 30 μg/mL 2-NBDG
Method: as §1, §2

Compound | relative glycolysis rate ([1-13C]glucose to [3-13C]lactate) (MDA-MB-231 cells) | glucose uptake (2-NBDG) in response to insulin stimulation (MDA-MB-231) | glucose uptake (2-NBDG) in response to insulin stimulation (MDA-MB-453)
O=c1cc(-c2cccc3c2Sc2ccccc2S3)oc(N2CCOCC2)c1 [KU-55933] | significant inhibition of glycolysis rate |  | 
insulin |  | enhanced glucose uptake | enhanced glucose uptake
